Target: T1, glucagon-like peptide-1 receptor (GLP1R CHO-K1 Gs overexpressing cells) (Homo sapiens, UniProt P43220)
T1 construct: host or cells: CHO-K1
Experiment: DiscoveRx cAMP Hunter express GPCR Assay (cellular cAMP formation)
Assay type: cell-based
Settings: 30 min at 37° C., cAMP chemiluminescent signal, four-parameter curve fitting
Protocol: The activity of terminally modified PHF exendin conjugates were measured using DiscoveRx cAMP Hunter express GPCR Assay which determines the cellular formation of a second messenger such as cAMP. […] It binds to glucagon-like peptide-1 receptor 1-G-protein coupled receptor (GPCR). Following stimulation of this receptor, intracellular signaling pathways are activated that lead to the production of intracellular second messengers, such as cAMP. Free cAMP molecules from cell lysates compete for antibody binding with a labeled enzyme donor (ED)-cAMP conjugate, which contains a small peptide fragment of β-galactosidase. In the absence of free cAMP, the ED-cAMP conjugates are captured by the cAMP-specific antibody and are unavailable for complementation with the enzyme acceptor (EA), resulting in a low signal. In the presence of free cAMP, antibody sites are occupied, allowing the ED-cAMP conjugate to complement with EA, forming an active β-galactosidase enzyme; substrate hydrolysis by this enzyme produces a chemiluminescent signal. The signal generated is in direct proportion to the amount of free cAMP […]. […] Luminescent signal was measured using a SpectraMax M5 plate reader (Molecular Devices). […] EC50 values were determined from four-parameter curve fitting.

T1 sequence (P43220 24-463): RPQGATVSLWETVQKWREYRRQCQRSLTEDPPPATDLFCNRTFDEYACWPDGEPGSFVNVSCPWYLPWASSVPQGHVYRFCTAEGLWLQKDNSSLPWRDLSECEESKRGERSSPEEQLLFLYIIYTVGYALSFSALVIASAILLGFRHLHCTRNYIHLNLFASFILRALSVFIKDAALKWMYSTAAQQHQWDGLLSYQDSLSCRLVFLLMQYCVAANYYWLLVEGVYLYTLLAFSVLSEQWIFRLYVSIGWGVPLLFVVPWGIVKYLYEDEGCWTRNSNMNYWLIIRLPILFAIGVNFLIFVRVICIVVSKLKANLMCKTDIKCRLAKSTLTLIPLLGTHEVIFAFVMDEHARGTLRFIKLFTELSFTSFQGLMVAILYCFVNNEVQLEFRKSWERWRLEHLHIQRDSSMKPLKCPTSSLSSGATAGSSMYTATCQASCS

“50 kDa PHF-6-maleimido hexanamide-Exendin-4-Cys (i.e., (Exendin-4-Cys)-(N-(2-maleimido)propanamido)propyl)-ethylamino-50 kDa PHF) [Example 15]” gave an EC50 of 1.87 nM.
